Experimental data as given in patent US10934298B2, “Substituted pyrazolo[1,5-a]pyrimidines for the treatment of medical disorders” (BIAL—BioTech Investments, Inc., priority 2016, dated 2021).
Converted amounts (≈) assume the structure as drawn. Like-named read-outs stand apart in the source and are kept apart here.

Assays:
[1] = Compound solubility in water; assay type: physicochemical
[2] = molecular target: T1, glucocerebrosidase (Gcase) (Homo sapiens, UniProt P04062); assay: Glucocerebrosidase (Gcase) activation assay with 4-methylumbelliferyl-beta-D-glucopyranoside substrate, saposin C and phosphatidylserine/triton micelles, fluorescence readout; assay type: biochemical; details: for Percent Gease Activation, 0.1 μM Test Compound / Percent Gease Activation, 1 μM Test Compound: Table 4
T1 construct: micellar solution containing 10 nM GCase and 100 nM saposin C
T1 sequence (P04062 40-536): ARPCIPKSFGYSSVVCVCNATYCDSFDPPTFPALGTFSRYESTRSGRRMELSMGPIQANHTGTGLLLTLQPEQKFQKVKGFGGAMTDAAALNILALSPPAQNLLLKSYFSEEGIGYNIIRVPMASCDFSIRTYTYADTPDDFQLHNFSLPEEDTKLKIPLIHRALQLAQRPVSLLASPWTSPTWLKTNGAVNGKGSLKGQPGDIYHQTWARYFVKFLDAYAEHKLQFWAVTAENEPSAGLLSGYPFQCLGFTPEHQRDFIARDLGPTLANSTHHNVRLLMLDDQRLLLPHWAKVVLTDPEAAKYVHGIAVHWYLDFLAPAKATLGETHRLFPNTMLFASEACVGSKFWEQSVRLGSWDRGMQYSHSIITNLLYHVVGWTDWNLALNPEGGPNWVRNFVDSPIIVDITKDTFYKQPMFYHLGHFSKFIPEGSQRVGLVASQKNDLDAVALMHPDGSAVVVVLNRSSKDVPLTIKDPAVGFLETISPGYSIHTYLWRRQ
Method in brief: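 Fluorescence (ex 365 nm, em 440 nm) read after glycine pH 12.5 stop of a 15 min room-temperature reaction. GCase 10 nM plus saposin C 100 nM in PS/triton micelles, pH 4.7, preincubated 30 min with compound; substrate solution held 2 mM 4-MU-beta-glucoside. Screened at 1.0 and 0.1 μM; 8-point, 3-fold curves from 5 μM top.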

Compound: C#Cc1ccc(NC(=O)c2cnn3c(C)cc(C)nc23)cc1 [IV-1]
- Compound Solubility in Water ([1]; Table 4): <1.5 µg/mL
- Percent Gease Activation, 0.1 μM Test Compound ([2]; 0.1 μM test compound): ** (Gcase activation in the range of 10% up to 20%)
- Percent Gease Activation, 1 μM Test Compound ([2]; 1 μM test compound): ++ (Gcase activation in the range of 30% up to 60%)

Compound: Cc1cc(-c2ccc(Cl)nc2)nc2c(C(=O)N[C@@H](C3CC3)C(F)(F)F)cnn12 [III-118]
- solubility [1]: 0.4 µg/mL (≈ 0.976 µM)
- Percent Gcase Activation, 0.1 μM Test Compound ([2]; test compound at 0.1 μM): *** (greater than 20% Gcase activation)
- Percent Gcase Activation, 1 μM Test Compound ([2]; test compound at 1.0 μM): +++ (Gcase activation greater than 60%)

Compound: COc1cccc(-c2cc(C)n3ncc(C(=O)NC(C4CC4)C(F)(F)F)c3n2)n1 (stereo not drawn) [III-105]
- solubility [1]: 0.08 µg/mL (≈ 0.197 µM)
- Percent Gcase Activation, 0.1 μM Test Compound ([2]; test compound at 0.1 μM): *** (greater than 20% Gcase activation)
- Percent Gcase Activation, 1 μM Test Compound ([2]; test compound at 1.0 μM): +++ (Gcase activation greater than 60%)

Compound: Cc1cc(C)n2ncc(C(=O)Nc3ccc(N4CCCCC4)cc3)c2n1 [IV-3]
- Compound Solubility in Water ([1]; Table 4): <1.5 µg/mL
- Percent Gease Activation, 0.1 μM Test Compound ([2]; 0.1 μM test compound): * (less than 10% Gcase activation)
- Percent Gease Activation, 1 μM Test Compound ([2]; 1 μM test compound): + (less than 30% Gcase activation)

Compound: Cc1cc(-c2ccc3ocnc3c2)nc2c(C(=O)NC(C3CC3)C(F)(F)F)cnn12 (stereo not drawn) [III-171]
- Compound Solubility in Water [1]: 0.4 µg/mL
- Percent Gcase Activation, 0.1 μM Test Compound ([2]; test compound at 0.1 μM): *** (greater than 20% Gcase activation)
- Percent Gcase Activation, 1 μM Test Compound ([2]; test compound at 1.0 μM): +++ (Gcase activation greater than 60%)

Compound: Cc1cc(-c2ccccn2)nc2c(C(=O)N[C@@H](C)C3CC3)cnn12 [III-24]
- solubility ([1]; Table 3A): 8.1 µg/mL (≈ 25.2 µM)
- Percent Gcase Activation, 0.1 μM Test Compound ([2]; 0.1 μM test compound, Table 3A): ** (Gcase activation in the range of 10% up to 20%)
- Percent Gcase Activation, 1 μM Test Compound ([2]; 1 μM test compound, Table 3A): +++ (Gcase activation greater than 60%)

Compound: Cc1cc(-c2cccnc2)nc2c(C(=O)N[C@@H](C)C3CC3)cnn12 [III-26]
- solubility ([1]; Table 3A): 26 µg/mL (≈ 80.9 µM)
- Percent Gcase Activation, 0.1 μM Test Compound ([2]; 0.1 μM test compound, Table 3A): * (less than 10% Gcase activation)
- Percent Gcase Activation, 1 μM Test Compound ([2]; 1 μM test compound, Table 3A): ++ (Gcase activation in the range of 30% up to 60%)

Compound: Cc1cc(-c2cccc(F)n2)nc2c(C(=O)NC(C3CC3)C(F)(F)F)cnn12 (stereo not drawn) [III-130]
- solubility [1]: 0.2 µg/mL (≈ 0.508 µM)
- Percent Gcase Activation, 0.1 μM Test Compound ([2]; test compound at 0.1 μM): *** (greater than 20% Gcase activation)
- Percent Gcase Activation, 1 μM Test Compound ([2]; test compound at 1.0 μM): +++ (Gcase activation greater than 60%)

Compound: Cc1cc(-c2ccncc2)nc2c(C(=O)NC(C)C3CC3)cnn12 (stereo not drawn) [III-28]
- Percent Gcase Activation, 0.1 μM Test Compound ([2]; 0.1 μM test compound, Table 3A): * (less than 10% Gcase activation)
- Percent Gcase Activation, 1 μM Test Compound ([2]; 1 μM test compound, Table 3A): ++ (Gcase activation in the range of 30% up to 60%)

Compound: Cc1cc(-c2cccc(-c3ncon3)c2)nc2c(C(=O)NC(C3CC3)C(F)(F)F)cnn12 (stereo not drawn) [III-176]
- Percent Gcase Activation, 0.1 μM Test Compound ([2]; test compound at 0.1 μM): *** (greater than 20% Gcase activation)
- Percent Gcase Activation, 1 μM Test Compound ([2]; test compound at 1.0 μM): +++ (Gcase activation greater than 60%)

Compound: Cc1cc(-c2noc(C(C)C)n2)nc2c(C(=O)N[C@H](C3CC3)C(F)(F)F)cnn12 [III-393]
- Percent Gcase Activation, 0.1 μM Test Compound ([2]; 0.1 μM test compound): *** (greater than 20% Gcase activation)
- Percent Gcase Activation, 1 μM Test Compound ([2]; 1 μM test compound): +++ (Gcase activation greater than 60%)

Compound: Cc1cc(-c2ccco2)nc2c(C(=O)NC(C3CC3)C(F)(F)F)cnn12 (stereo not drawn) [III-186]
- Percent Gcase Activation, 0.1 μM Test Compound ([2]; test compound at 0.1 μM): *** (greater than 20% Gcase activation)
- Percent Gcase Activation, 1 μM Test Compound ([2]; test compound at 1.0 μM): +++ (Gcase activation greater than 60%)

Compound: Cc1cc(-c2ccc(F)c(C(N)=O)c2)nc2c(C(=O)NC(C3CC3)C(F)(F)F)cnn12 (stereo not drawn) [III-162]
- Percent Gcase Activation, 0.1 μM Test Compound ([2]; test compound at 0.1 μM): *** (greater than 20% Gcase activation)
- Percent Gcase Activation, 1 μM Test Compound ([2]; test compound at 1.0 μM): +++ (Gcase activation greater than 60%)

Compound: Cc1cc(-c2ccc(Cl)nc2)nc2c(C(=O)N[C@H](C3CC3)C(F)(F)F)cnn12 [III-117]
- Percent Gcase Activation, 0.1 μM Test Compound ([2]; test compound at 0.1 μM): *** (greater than 20% Gcase activation)
- Percent Gcase Activation, 1 μM Test Compound ([2]; test compound at 1.0 μM): +++ (Gcase activation greater than 60%)
